In patent US20070225333A1, “3-Heterocyclyl-4-Phenyl-Triazole Derivatives as Inhibitors of the Vasopressin Via Receptor” (priority 2004, published 2007):

biological target: T1, human V1A receptor (Homo sapiens, UniProt P37288); test: V1A filter binding assay ([3H]-AVP binding to CHO-hV1A membranes); details: Ki by Cheng-Prusoff
T1 construct: expressed in transfected cells; host or cells: CHO cells (CHO-hV1A line provided by Marc Thibonnier, Case Western Reserve University)
Experimental: 1.0 V1A Filter Binding Assay
Receptor binding assays were performed on cellular membranes prepared from CHO cells stably expressing the human V1A receptor, (CHO-hV1A). The CHO-hV1A cell line was kindly provided under a licensing agreement by Marc Thibonnier, Dept. of Medicine, Case Western Reserve University School of Medicine, Cleveland, Ohio. CHO-hV1A cells were routinely maintained at 37° C. in humidified atmosphere with 5% CO2 in DMEM/Hams F12 nutrient mix supplemented with 10 % fetal bovine serum, 2 mM L-glutamine, 15 mM HEPES and 400 μg/ml G418. For bulk production of cell pellets, adherent CHO-hV1A cells were grown to confluency of 90-100% in 850 cm^2 roller bottles containing a medium of DMEM/Hams F12 Nutrient Mix supplemented with 10% fetal bovine serum, 2 mM L-glutamine and 15 mM HEPES. Confluent CHO-hV1A cells were washed with phosphate-buffered saline (PBS), harvested into ice cold PBS and centrifuged at 1,000 rpm. Cell pellets were stored at −80° C. until use. Cell pellets were thawed on ice and homogenised in membrane preparation buffer consisting of 50 mM Tris-HCl, pH 7.4, 5 mM MgCl2 and supplemented with a protease inhibitor cocktail, (Roche). The cell homogenate was centrifuged at 1000 rpm, 10 min, 4° C. and the supernatant was removed and stored on ice. The remaining pellet was homogenised and centrifuged as before. The supernatants were pooled and centrifuged at 25,000× g for 30 min at 4° C. The pellet was resuspended in freezing buffer consisting of 50 mM Tris-HCl, pH 7.4, 5 mM MgCl2 and 20% glycerol and stored in small aliquots at −80° C. until use. Protein concentration was determined using Bradford reagent and BSA as a standard.
Protein linearity followed by saturation binding studies were performed on each new batch of membrane. Membrane concentration was chosen that gave specific binding on the linear portion of the curve. Saturation binding studies were then performed using various concentrations of [^3H]-arginine vasopressin, [^3H]-AVP (0.05 nM-100 nM) and the Kd and Bmax determined.
Compounds were tested for their effects on [^3H]-AVP binding to CHO-hV1A membranes, (^3H-AVP; specific activity 65.5 Ci/mmol; NEN Life Sciences). Compounds were solubilised in dimethylsulfoxide (DMSO) and diluted to working concentration of 10% DMSO with assay buffer containing 50 mM Tris-HCL pH 7.4, 5 mM MgCl2 and 0.05% BSA. […] The binding reaction was initiated by the addition of 200 μl membrane and the plates were gently shaken for 60 min at room temperature. The reaction was terminated by rapid filtration using a Filtermate Cell Harvester (Packard Instruments) through a 96-well GF/B UniFilter Plate which had been pre-soaked in 0.5% polyethyleneimine to prevent peptide sticking. The filters were washed three times with 1 ml ice cold wash buffer containing 50 mM Tris-HCL pH 7.4 and 5 mM MgCl2. The plates were dried and 50 μl Microscint-0 (Packard instruments) was added to each well. The plates were sealed and counted on a TopCount Microplate Scintillation Counter (Packard Instruments). Non-specific binding (NSB) was determined using 1 μM unlabelled d(CH2)5Tyr(Me)AVP ([β-mercapto-β,β-cyclopentamethylenepropionyl,0-Me-Tyr^2,Arg^8]-vasopressin) (βMCPVP), (Sigma). The radioligand binding data was analysed using a four parameter logistic equation with the min forced to 0%. The slope was free fitted and fell between −0.75 and −1.25 for valid curves. Specific binding was calculated by subtracting the mean NSB cpm from the mean Total cpm. For test compounds the amount of ligand bound to the receptor was expressed as % bound=(sample cpm−mean NSB cpm)/specific binding cpm ×100. The % bound was plotted against the concentration of test compound and a sigmoidal curve was fitted. The inhibitory dissociation constant (Ki) was calculated using the Cheng-Prusoff equation: Ki=IC50/(1+[L]/Kd) where [L] is the concentration of ligand present in the well and Kd is the dissociation constant of the radioligand obtained from Scatchard plot analysis. […]

T1 sequence (P37288 whole entry): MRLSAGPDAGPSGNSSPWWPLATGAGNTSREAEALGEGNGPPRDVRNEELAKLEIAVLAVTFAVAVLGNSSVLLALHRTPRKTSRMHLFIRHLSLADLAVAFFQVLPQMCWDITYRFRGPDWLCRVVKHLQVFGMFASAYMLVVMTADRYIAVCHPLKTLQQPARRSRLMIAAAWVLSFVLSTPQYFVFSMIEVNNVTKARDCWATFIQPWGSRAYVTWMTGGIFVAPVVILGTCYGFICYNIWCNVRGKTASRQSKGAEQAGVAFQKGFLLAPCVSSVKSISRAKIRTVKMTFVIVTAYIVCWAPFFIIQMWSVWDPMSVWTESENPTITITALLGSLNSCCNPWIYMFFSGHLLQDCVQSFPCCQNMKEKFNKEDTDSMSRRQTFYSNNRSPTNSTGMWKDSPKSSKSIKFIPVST

Row | Compound | Ki
1 | Cc1nnc(N2CCC(Oc3ccccc3)CC2)n1-c1ccc(Cl)cc1 [Example 26, 1-[4-(4-Chloro-phenyl)-5-methyl-4H-[1,2,4]triazole-3-yl]-4-phenoxy-piperidine] | 3.19 nM
2 | COCc1nnc(N2CCC(Oc3ccccn3)CC2)n1-c1ccc(Cl)cc1 [Example 33, 2-({1-[4-(4-Chlorophenyl)-5-(methoxymethyl)-4H-1,2,4-triazol-3-yl]piperidin-4-yl}oxy)pyridine] | 1.28 nM
3 | Cc1nnc(N2CCC(N(C)c3ncccn3)CC2)n1-c1ccc(Cl)cc1 [Example 41, N-{1-[4-(4-Chlorophenyl)-5-methyl-4H-1,2,4-triazol-3-yl]-piperidin-4-yl}-N-methylpyrimidin-2-amine] | 1.49 nM

These reach a lower Ki. Values come first.

Row | Ki | Compound
4 | 1.06 nM | Clc1ccc(-n2c(Cn3nccn3)nnc2N2CCC(Oc3ncccn3)CC2)cc1 [Example 34, 2-{1-[4-(4-Chloro-phenyl)-5-[1,2,3]triazole-2-ylmethyl-4H-[1,2,4]triazole-3-yl]-piperidin-4-yloxy}-pyrimidine]
5 | 0.96 nM | CCOCc1nnc(N2CCC(Oc3ncccn3)CC2)n1-c1ccc(Cl)cc1 [Example 38]
6 | 0.5 nM | Cc1nnc(N2CCC(N(C)c3ccccn3)CC2)n1-c1ccc(Cl)cc1 [Example 40, N-{1-[4-(4-Chlorophenyl)-5-methyl-4H-1,2,4-triazol-3-yl]-piperidin-4-yl}-N-methylpyridin-2-amine]
